Test system: AML cell line MV-4-11B
Test: IncuCyte live cell imaging assay: cell growth (confluence) and apoptosis (Caspase-3/7 green fluorescence) over time
Assay type: cell-based
Conditions: MV-4-11B cells, single compound treatment, vs DMSO control
Procedure: The analysis is done by the Essen BioScience IncuCyte™ FLR live cell imaging system. It enables observation and quantification of cell behavior over time by automatically gathering and analyzing images around the clock. This live-cell, non-perturbating imaging approach yields kinetic data, all generated within the controlled environment of a standard cell incubator.
MV-4-11B is the AML cell line MV-4-11 from ATCC (CRL-9591) which has achieved a mutation in TP53 (c.742C>T, p.R248W, heterozygous for TP53). MV-4-11B cells were grown in T-75 flasks using RPMI1640 medium supplemented with 10% fetal calf serum and 50 μM mercaptoethanol. Cultures were incubated at 37° C. and 5% CO2 in a humidified atmosphere.
For the IncuCyte live cell imaging assays, cells were plated in 96 well plates, Poly-D-Lysine coated, and were incubated with the respective compounds (BET inhibitor 1-12, volasertib), either alone or in combination. For the detection of apoptotic cells, the Essen BioSciences CellPlayer™ 96 well Kinetic Caspase-3/7 Reagent was added.
To determine cell proliferation, “confluence” (area covered with cells in the wells) was used as readout, to determine the amount of apoptosis (dead cells), the intensity of green fluorescence was used as readout.

Q: Which results are given for `CC[C@@H]1C(=O)N(C)c2cnc(Nc3ccc(C(=O)N[C@H]4CC[C@H](N5CCN(CC6CC6)CC5)CC4)cc3OC)nc2N1C(C)C` [volasertib, N-[trans-4-[4-(cyclopropylmethyl)-1-piperazinyl]cyclohexyl]-4-[[(7R)-7-ethyl-5,6,7,8-tetrahydro-5-methyl-8-(1-methylethyl)-6-oxo-2-pteridinyl]amino]-3-methoxy-benzamide]?
A: Cell growth (confluence) (over time (FIGS. 1-12 a)): reduced in comparison to DMSO control treated cells; Apoptosis (Caspase-3/7 green fluorescence) (over time (FIGS. 1-12 b)): increased in comparison to DMSO control treated cells
